# Assays:
# [1] = Body fat mass by DEXA in Swiss mice fed with a western diet; assay type: in vivo
# Protocol: In our investigations, two kinds of diet were used: 1—a standard diet (A04 diet from UAR) containing 3% of lipids and bringing 2900 kcal per kg; 2—a western diet (from UAR too) containing 16% of lipids and bringing 4300 kcal per kg.
# D,L-β-Aminoisobutyric acid (BAIBA) was purchased from Sigma-Aldrich. BAIBA has been administered in drinking water at the dose of 100 mg/kg/day or 500 mg/kg/day for 6 weeks, 2 months or 4 months according to the experiments.
# The in vivo determination of body fat mass in anesthetized mice has been performed by “DEXA” (Dual Energy X-ray Absorptiometry) (Pietriobelli A., Formica C., Wang Z., Heymsfield S. B., 1996, Am. J. Physiol. 271 (Endocrinol. Metab. 34): E941-E951)). […] It is noteworthy that DEXA also gives for each investigated animal its lean mass that is the total amount of water and proteins (in grams) in the body (excluding the head). Therefore, for a given animal, DEXA allows the determination of the percentage of body fat which is its body fat mass divided by the sum of its body lean and fat masses (fat mass/(lean mass+fat mass)). The “DEXA” apparatus was a Piximus® from Lunar Corporation (Madison, Wis.). Mice were anesthetized thanks to a mixture of xylazine and ketamine. […]
# In a third series of experiments, we sought to determine as to whether of 100 mg/kg/day of β-aminoisobutyric acid (BAIBA) would be able to decrease body fat mass in Swiss mice fed with a western diet (i.e. hypercaloric diet). For this purpose, young (4 weeks old at T0) Swiss mice were fed with a hypercaloric western diet (WD), with or without BAIBA in the drinking water (8 mice in each group). For comparison, the experiment included a group of mice (n=8) fed with a standard diet (SD). DEXA was performed one day before the beginning of the treatment (T0) and then two, four and six weeks after the initiation of the experience (T2, T4 and T6, respectively). This allowed us to determine for each animal the variation of body parameters (e.g. fat mass, body weight) for the different periods of the treatment (T0-T2, T2-T4, T4-T6 and T0-T6). For these four DEXA determinations (T0 to T6), mice were not fasted before measurements. In this experiment, BAIBA reduced the gain of body fat mass in Swiss mice fed with a western diet and this beneficial effect was observed from the fourth week of the BAIBA administration. This effect is illustrated in FIG. 3. […] Indeed, during the T0-T6 period control mice fed with the western diet (Controls-WD) gained 4.88±0.83 grams of body fat whereas mice fed with the same diet and receiving BAIBA (BAIBA-WD) gained 3.91±0.59 grams of body fat mass. For comparison, mice fed with the standard diet (Controls-SD) gained 3.18±0.34 grams of body fat during the entire period (T0-T6) of the experiment. • At the end of the treatment (T6), the body fat mass was 4.48±0.33, 6.21±0.85 and 5.25±0.60 grams, respectively for the Controls-SD, Controls-WD and BAIBA-WD groups of mice (15% decrease between Controls-WD and BAIBA-WD). The percentage of body fat ((fat mass)/(fat+lean mass)) was at this time 13.23±0.86, 17.96±2.04 et 15.76±1.53%, respectively in the Controls-SD, Controls-WD and BAIBA-WD groups.
# Finally, we sought to determine on the very same animals as to whether fasting would be able to enhance the beneficial effect of BAIBA on body fat mass. Thus, after the fourth DEXA measurement (i.e. DEXA determination at T6), mice were allowed to recover from the anaesthesia for ca. 2 days and were then submitted to a 48-hour period of fast. A last DEXA measurement was then performed in fasted mice. […] Indeed, after the fasting period, body fat mass was 3.10±0.30, 5.40±0.75 et 4.79±0.56 grams, respectively in control mice fed the standard diet (Controls-SD), control mice fed with the western diet (Controls-WD), and mice fed with the western diet and receiving BAIBA (BAIBA-WD). […]
# [2] = Liver histology, liver triglycerides and ALT in ob/ob mice treated for 4 months, not fasted; assay type: in vivo; conditions: for plasma alanine aminotransferase (ALT): after 4 months
# Protocol: Total lipids and triglycerides in the liver of animals were assessed according to a procedure partially reported by (Letteron P., Fromenty B., Terris B., Degott C., Pessayre D., 1996, J. Hepatol. 24 : 200-208). Briefly, after killing of the animals, livers were removed and homogenized in sterile water. Hepatic lipids were thus extracted by a mixture of chloroform and methanol (2/1; v/v). After removal of the aqueous phase, the organic phase (chloroform containing the lipids) was evaporated and the amount of lipids was determined by gravimetry. Lipids were subsequently resuspended in isopropanol (final concentration, ca. 10 mg/mL). After removal of the phopholipids by using aluminum hydroxide hydrate, triglycerides were determined colorimetrically by using periodate and the Nash's reagent (containing acetylacetone, ammonium acetate and isopropanol). The reaction generates diacetyldihydrolutidine which is assayed by spectrophotometry (λ=410 nm).
# Plasma HDL-cholesterol and alanine aminotransferase (ALT) were measured on an automatic analyser (Olympus AU400®) with commercial kits (Olympus Diagnostica GmbH, references OSR6187 and OSR6107, respectively).
# Finally, liver histology was performed according to regular procedure. Steatosis and fibrosis were assessed thanks to the Oil red O and Masson's trichrome stains, respectively, whereas necrosis and inflammation were determined thanks to the HPS (Hematoxylin-Phloxin-Saffron) stain, or the HE (Hematoxylin-Eosin) stain. In one experiment, perisinusoidal fibrosis was assessed with the Sirius Red stain.
# In a second series of investigations, liver histology was studied in ob/ob mice treated for 4 months with β-aminoisobutyric acid, administered either at the usual dose (100 mg/kg/day) or at a higher dose (500 mg/kg/day). In this experiment, liver examination was performed in mice not submitted to a fasting period before sacrifice. The number of investigated animals were 6, 7 and 8, respectively in the control group and in the groups treated with 100 and 500 mg/kg/day of β-aminoisobutyric acid.
# [3] = test system: mitochondrial beta-oxidation of fatty acids in liver; assay: Mitochondrial beta-oxidation of fatty acids in liver
compound,measurement,setting,value
"CC(CN)C(=O)O (racemic) [BAIBA, D,L-β-Aminoisobutyric acid]",gain of body fat mass,"[1]; 100 mg/kg/day, western diet, T0-T6",3.91±0.59 grams
same,reduction of the gain of body fat mass,"[1]; 100 mg/kg/day, western diet, T0-T6, vs Controls-WD",20%
same,body fat lost,"[1]; 100 mg/kg/day, western diet, T4-T6 period",0.45±0.30 grams
same,body weight,"[1]; 100 mg/kg/day, western diet, after 6 weeks",37.0±0.76 grams
same,percentage of body fat ((fat mass)/(fat+lean mass)),"[1]; 100 mg/kg/day, western diet, at T6",15.76±1.53%
same,body fat mass,"[1]; 100 mg/kg/day, western diet, at T6, fed",5.25±0.60 grams
same,body fat mass,"[1]; western diet 6 weeks, after 48-hour fasting period",4.79±0.56 grams
same,decrease of the percentage of body fat,"[1]; western diet 6 weeks, fasted state",11%
same,decrease of the percentage of body fat,"[1]; western diet 6 weeks, fed state",15%
same,decrease of body fat mass between Controls-WD and BAIBA-WD,"[1]; western diet, at T6",15%
same,body weight,"[1]; western diet, at the end of the fasting period",33.6±0.9 grams
same,liver triglycerides,"[2]; 100 mg/kg/day, 4 months",721±16 mg/g of lipids
same,mice with inflammation,"[2]; 100 mg/kg/day, 4 months",43%
same,mice with necrosis,"[2]; 100 mg/kg/day, 4 months",43%
same,mice with perisinusoidal fibrosis,"[2]; 100 mg/kg/day, 4 months",29%
same,mice with portal or perivenular fibrosis,"[2]; 100 mg/kg/day, 4 months",29%
same,plasma alanine aminotransferase (ALT),[2]; 100 mg/kg/day,290±61 U/L
same,liver triglycerides,"[2]; 500 mg/kg/day, 4 months",707±29 mg/g of lipids
same,plasma alanine aminotransferase (ALT),[2]; 500 mg/kg/day,258±27 U/L
same,extent of steatosis vs control,"[2]; 100 and 500 mg/kg/day, 4 months, not fasted",about the same extent
same,mitochondrial beta-oxidation of fatty acids in liver,[3],increases

# — patent US20060167098A1, “Method for the treatment of diseases linked to an accumulation of triglycerides and cholesterol” (Institut National De La Sante ET De LA Recherche Medicale …, priority 2003, published 2006)
